Source: US7265155B2 (NBS Pharmaceuticals, Inc., priority 1996, dated 2007)
Marks after values point to notes of the source that are not given here.

How the values were obtained:
[1] = tested on: rat; assay: Rotarod Test in the Rat; assay type: in vivo; conditions: for Number of Rats Falling: ten rats per group
Method: This is a test of neurological deficits using the method described by Dunham et al., J. Am. Pharm. Assoc. 46: 208-09 (1957). Rats or mice are placed on a rod rotating at a speed of eight turns per minute. The number of animals which drop off the rod before three minutes is counted and the drop-off times are recorded (maximum: 180 seconds). Ten rats are studied per group and the test is performed blind. The test compound is administered i.p. 60 minutes prior to testing. Diazepam, a benzodiazepine, is administered at 8 mg/kg, i.p., as the reference substance. A control group administered the vehicle is also included in the study.

[2] = tested on: Frings mouse; assay: Rotarod motor impairment (toxicity) in the Frings mouse; assay type: in vivo; conditions: for Number Showing Toxicity of Eight Mice Tested at 30 minutes / Number Showing Toxicity of Eight Mice Tested at 120 minutes: Table 5; for Number Showing Toxicity of Four Mice Tested at 30 minutes / Number Showing Toxicity of Four Mice Tested at 120 minutes: Table 4
Method: (§1) The average seizure score can be calculated for each group of mice employed in the dose-response study. At each dose, mice are also tested on a rotarod for testing of motor impairment (toxicity). Testing for motor impairment on the rotarod involves placing a mouse for a three-minute trial period on a one-inch diameter rod rotating at six revolutions per minute. If the mouse falls off of the rotating rod three times within the three-minute time period, it is considered a toxic response.

[3] = tested on: Frings audiogenic seizure-susceptible mouse; assay: Frings audiogenic seizure-susceptible mouse model of epilepsy; assay type: in vivo; conditions: for anticonvulsant activity when administered orally: oral
Description: One useful model is provided by the Frings audiogenic seizure-susceptible mouse, a model of reflex epilepsy. At the time of testing, individual mice are placed into a round Plexiglas chamber and exposed to a sound stimulus of 110 decibels, 11 kHz, for 20 seconds. Animals not displaying tonic hindlimb extensions were considered protected. In addition, the seizure score for each mouse can be recorded as: (1) running for less than 10 seconds; (2) running for greater than 10 seconds; (3) clonic activity of limbs and/or vibrissae; (4) forelimb extension/hindlimb flexion; and (5) hindlimb extension.
as §1

[4] = reported in the literature; cited from earlier work
[5] = in vivo; cited from earlier work
[6] = 4 mg/kg i.p. 60 minutes before test
[7] = 8 mg/kg i.p. 60 minutes before test

Q: What does the source list for `CN1C(=O)CN=C(c2ccccc2)c2cc(Cl)ccc21` [Diazepam, diazepam]?
A: Drop-Off Time % change from control [1, 6]: −59%; Drop-Off Time (sec) Mean ± S.E.M. [1, 6]: 55.8 ± 20.6^d sec; Number of Rats Falling [1, 6]: 9; Drop-Off Time % change from control [1, 7]: −88%; Drop-Off Time (sec) Mean ± S.E.M. [1, 7]: 16.3 ± 6.4^f sec; Number of Rats Falling [1, 7]: 10+ ^e; rotarod performance in the rat ([1]; i.p. 60 minutes before test, isovaleramide 128, 256 and 512 mg/kg): dose-dependently decreased rotarod performance

Q: With `CC(C)C(C)C(N)=O` (stereo not shown) [2-methylisovaleramide] as the compound, how does the “Number Showing Toxicity of Eight Mice Tested at 30 minutes” value ([2]; 30 mg/kg oral) read?
A: 0

Q: What about the “Number Showing Toxicity of Eight Mice Tested at 120 minutes” value ([2]; 30 mg/kg oral) of the same compound?
A: 0

Q: And the “Number Showing Toxicity of Eight Mice Tested at 30 minutes” value ([2]; 100 mg/kg oral)?
A: 0

Q: What about the “Number Showing Toxicity of Eight Mice Tested at 120 minutes” value ([2]; 100 mg/kg oral) of the same compound?
A: 0

Q: What about the “Number Showing Toxicity of Eight Mice Tested at 30 minutes” value ([2]; 300 mg/kg oral) of the same compound?
A: 2^a

Q: What about the “Number Showing Toxicity of Eight Mice Tested at 120 minutes” value ([2]; 300 mg/kg oral) of the same compound?
A: 0

Q: What about the “signs of toxicity in the animals counted as toxic” value ([2]; Table 5 footnote, 300 mg/kg oral, 30 minutes) of the same compound?
A: ^ano definitive signs of toxicity such as sedation or ataxia, animals just fell off

Q: And the “Number Protected of Four Mice Tested at 30 minutes” value (“Number Protected … at 30 minutes” for short) ([3]; Table 5, 30 mg/kg oral)?
A: 0

Q: And the “Number Protected of Four Mice Tested at 120 minutes” value (“Number Protected … at 120 minutes” for short) ([3]; Table 5, 30 mg/kg oral)?
A: 0

Q: What about the “Number Protected … at 30 minutes” value ([3]; Table 5, 100 mg/kg oral) of the same compound?
A: 1

Q: And the “Number Protected … at 120 minutes” value ([3]; Table 5, 100 mg/kg oral)?
A: 0

Q: And the “Number Protected … at 30 minutes” value ([3]; Table 5, 300 mg/kg oral)?
A: 4

Q: And the “Number Protected … at 120 minutes” value ([3]; Table 5, 300 mg/kg oral)?
A: 1

Q: What about the “anticonvulsant activity when administered orally” value [3] of the same compound?
A: displayed anticonvulsant activity when administered orally

Q: Which results are given for `CC(C)CC(=O)NCC(N)=O` [N-(2-acetamido)isovaleramide]?
A: Number Showing Toxicity of Four Mice Tested at 30 minutes ([2]; 30 mg/kg oral): 0; Number Showing Toxicity of Four Mice Tested at 120 minutes ([2]; 30 mg/kg oral): 0; Number Showing Toxicity of Four Mice Tested at 30 minutes ([2]; 100 mg/kg oral): 0; Number Showing Toxicity of Four Mice Tested at 120 minutes ([2]; 100 mg/kg oral): 0; Number Showing Toxicity of Four Mice Tested at 30 minutes ([2]; 300 mg/kg oral): 0; Number Showing Toxicity of Four Mice Tested at 120 minutes ([2]; 300 mg/kg oral): 0; Number Showing Toxicity of Four Mice Tested at 30 minutes ([2]; 1000 mg/kg oral): 1; Number Showing Toxicity of Four Mice Tested at 120 minutes ([2]; 1000 mg/kg oral): 0; Number Protected of Four Mice Tested at 30 minutes ([3]; Table 4, 30 mg/kg oral): 0; Number Protected of Four Mice Tested at 120 minutes ([3]; Table 4, 30 mg/kg oral): 0; Number Protected of Four Mice Tested at 30 minutes ([3]; Table 4, 100 mg/kg oral): 0; Number Protected of Four Mice Tested at 120 minutes ([3]; Table 4, 100 mg/kg oral): 0; Number Protected of Four Mice Tested at 30 minutes ([3]; Table 4, 300 mg/kg oral): 0; Number Protected of Four Mice Tested at 120 minutes ([3]; Table 4, 300 mg/kg oral): 0; Number Protected of Four Mice Tested at 30 minutes ([3]; Table 4, 1000 mg/kg oral): 3; Number Protected of Four Mice Tested at 120 minutes ([3]; Table 4, 1000 mg/kg oral): 4; anticonvulsant activity when administered orally [3]: displayed anticonvulsant activity when administered orally

Q: Which anticonvulsant activity [4] does the source give for `CC(C)CC(=O)O` [Isovaleric acid, isovaleric acid] here?
A: inactive as an anticonvulsant

Q: With `CCN(CC)C(=O)CC(C)C` [N,N-Diethyl isovaleramide] as the compound, how does the CNS properties [5] read?
A: CNS stimulant (convulsant) properties
